The assay deals with T1, ENaC (Homo sapiens, UniProt P37088+P51168+P51170).
T1 construct: endogenous in cells; host or cells: primary human nasal epithelial cells (HNEC)
T1 sequence (P37088 1-669): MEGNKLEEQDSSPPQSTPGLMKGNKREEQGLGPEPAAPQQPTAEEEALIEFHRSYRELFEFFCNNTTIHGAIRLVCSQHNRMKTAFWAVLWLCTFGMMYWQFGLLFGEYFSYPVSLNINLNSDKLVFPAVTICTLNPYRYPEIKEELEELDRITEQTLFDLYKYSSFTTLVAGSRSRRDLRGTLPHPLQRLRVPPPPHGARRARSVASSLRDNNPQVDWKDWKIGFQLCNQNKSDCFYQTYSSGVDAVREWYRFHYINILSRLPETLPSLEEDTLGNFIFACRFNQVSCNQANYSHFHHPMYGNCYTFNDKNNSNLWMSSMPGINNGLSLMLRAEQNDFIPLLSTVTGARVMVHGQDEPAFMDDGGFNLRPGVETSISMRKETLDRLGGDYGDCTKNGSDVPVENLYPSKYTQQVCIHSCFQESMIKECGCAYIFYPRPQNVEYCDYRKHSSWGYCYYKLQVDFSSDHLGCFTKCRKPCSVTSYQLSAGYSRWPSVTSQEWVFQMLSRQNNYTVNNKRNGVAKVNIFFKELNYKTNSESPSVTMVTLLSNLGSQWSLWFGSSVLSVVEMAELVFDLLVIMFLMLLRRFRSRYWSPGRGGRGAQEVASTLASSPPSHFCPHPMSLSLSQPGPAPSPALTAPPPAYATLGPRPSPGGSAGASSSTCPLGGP
T1 sequence (P51168 1-640): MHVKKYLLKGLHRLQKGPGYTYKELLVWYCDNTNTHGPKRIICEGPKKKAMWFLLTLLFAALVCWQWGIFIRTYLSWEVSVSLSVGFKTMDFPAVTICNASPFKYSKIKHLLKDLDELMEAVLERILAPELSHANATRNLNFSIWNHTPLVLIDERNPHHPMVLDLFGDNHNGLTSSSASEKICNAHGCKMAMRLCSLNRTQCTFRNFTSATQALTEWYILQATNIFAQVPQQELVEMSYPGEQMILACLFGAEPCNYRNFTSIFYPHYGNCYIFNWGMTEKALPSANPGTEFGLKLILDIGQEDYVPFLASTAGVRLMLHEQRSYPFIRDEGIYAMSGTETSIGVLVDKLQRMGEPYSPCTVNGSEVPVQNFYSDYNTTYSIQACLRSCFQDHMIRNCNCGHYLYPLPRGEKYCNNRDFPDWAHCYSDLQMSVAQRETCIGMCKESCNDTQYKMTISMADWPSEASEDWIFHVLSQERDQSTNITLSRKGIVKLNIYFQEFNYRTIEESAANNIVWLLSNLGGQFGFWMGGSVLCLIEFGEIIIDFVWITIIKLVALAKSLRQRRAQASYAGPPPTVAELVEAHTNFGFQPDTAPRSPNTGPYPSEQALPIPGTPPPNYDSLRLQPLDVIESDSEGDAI
T1 sequence (P51170 1-649): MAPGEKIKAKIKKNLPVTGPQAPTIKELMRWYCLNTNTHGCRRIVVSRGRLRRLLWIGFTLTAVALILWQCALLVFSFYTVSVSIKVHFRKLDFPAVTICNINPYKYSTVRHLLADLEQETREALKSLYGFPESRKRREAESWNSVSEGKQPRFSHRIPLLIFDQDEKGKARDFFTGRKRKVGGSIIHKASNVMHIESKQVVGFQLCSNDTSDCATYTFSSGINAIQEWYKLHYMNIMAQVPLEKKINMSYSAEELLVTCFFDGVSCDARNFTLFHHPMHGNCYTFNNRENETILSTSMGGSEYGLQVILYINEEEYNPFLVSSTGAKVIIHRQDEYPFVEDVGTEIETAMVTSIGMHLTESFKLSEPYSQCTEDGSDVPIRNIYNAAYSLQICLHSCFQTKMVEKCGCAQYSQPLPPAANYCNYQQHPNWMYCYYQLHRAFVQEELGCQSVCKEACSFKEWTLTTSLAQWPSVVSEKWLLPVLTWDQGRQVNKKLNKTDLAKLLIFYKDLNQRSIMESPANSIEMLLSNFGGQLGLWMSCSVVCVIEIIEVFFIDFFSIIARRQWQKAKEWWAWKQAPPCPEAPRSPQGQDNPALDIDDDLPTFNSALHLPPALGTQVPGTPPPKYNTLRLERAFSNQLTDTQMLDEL
Description: Short circuit current, amiloride sensitive transport in HNEC. Format: cell-based. Particulars: primary HNEC; 500 μM basolateral, 2 h. The method, then: B. Chloride activity in HeLa Wt cells was measured by MQAE assay, after 3 h of treatment by NSAID (500 μM) or diluent. CFTR activity was expressed in rate of UFA/sec, calculated by difference between ((Ft−F0)/t) with CFTR induction and ((Ft−F0)/t) without CFTR induction. […] C. Primary culture of human nasal epithelial cell (HNEC) grown on Snapwell filters (air-liquid interface) were exposed basolaterally to sulindac (500 μM) or vehicle for 2 h and immediately mounted into a voltage-clamp system to bioelectric measurements. Short circuit current was measured with addition of amiloride to evaluated amiloride sensitive transport or with forskolin and IBMX for induced cAMP-dependent Cl secretion.
Two cell models were used to the interface air-liquid model for ionic efflux assays by short circuit current and to dose the basolateral IL-8 secretion. Calu-3 are derived from lung adenocarcinoma and are able to polarized and express a high rate of endogenous CFTR. […] Transepithelial resistance and transepithelial potential difference were measured every 3 days using a microvoltmeter (World Precision Instruments, Astonbury, UK).
Cells were grown at 37° C. in a 5% CO2 incubator in DMEM with Glutamax (Invitrogen) and 10% fetal bovine serum (SVF). […] The effects of treatment in HNEC cultures on snapwell inserts were evaluated between days 10 and 16. […]

SMILES strings stand for the structures.

On to `CC1=C(CC(=O)O)c2cc(F)ccc2/C1=C\c1ccc([S+](C)[O-])cc1` (stereo not shown) [sulindac, (Z)-5-fluoro-2-methyl-1-[p-(methylsulfinyl)benzylidene]-indene-3-acetic acid], for which the “ENaC activity (amiloride sensitive short circuit current)” value was “not induced modification of ENaC activity”.

(Values after patent US9402821B2, “Methods and pharmaceutical compositions for treatment of cystic fibrosis” (INSERM (Institut National de la sante et de la Recherche …, priority 2012, dated 2016).)
